# Assay results published in patent US8952014B2, “Pyrimidine derivatives which are CGRP—antagonists” (Boehringer Ingelheim International GmbH, priority 2008, dated 2015).
# pKi: −log10 of the molar value.
# Biological target: T1, human CGRP receptor (Homo sapiens, UniProt O60894+Q16602)
# T1 construct: SK-N-MC membranes (˜20 μg protein) are incubated for 180 minutes at ambient temperature; endogenous in cells; host or cells: SK-N-MC cells (membranes)
# Assay: Binding studies with SK-N-MC cells (125I-CGRP displacement from membranes)
# Conditions: 50 pM 125I-iodotyrosyl-CGRP, 180 min, ambient temperature
# Protocol: A. Binding Studies with SK-N-MC Cells (Expressing the Human CGRP Receptor)
# SK-N-MC membranes (˜20 μg protein) are incubated for 180 minutes at ambient temperature with 50 pM ^125I-iodotyrosyl-Calcitonin-Gene-Related Peptide and increasing concentrations of the test substances in a total volume of 250 μl (assay buffer: 10 mM tris, 50 mM NaCl, 5 mM MgCl2, 1 mM EDTA, pH=7.4). The incubation is ended by rapid filtration through GF/B-glass fibre filters treated with polyethyleneimine (0.1%) using a cell harvester. The protein-bound radioactivity is measured using a gamma counter. Non-specific binding is defined as the bound radioactivity after the presence of 1 μM BIBN4096BS during incubation.
# The concentration binding curves are analysed using computer-aided non-linear curve fitting.
# T1 sequence (Q16602 23-461): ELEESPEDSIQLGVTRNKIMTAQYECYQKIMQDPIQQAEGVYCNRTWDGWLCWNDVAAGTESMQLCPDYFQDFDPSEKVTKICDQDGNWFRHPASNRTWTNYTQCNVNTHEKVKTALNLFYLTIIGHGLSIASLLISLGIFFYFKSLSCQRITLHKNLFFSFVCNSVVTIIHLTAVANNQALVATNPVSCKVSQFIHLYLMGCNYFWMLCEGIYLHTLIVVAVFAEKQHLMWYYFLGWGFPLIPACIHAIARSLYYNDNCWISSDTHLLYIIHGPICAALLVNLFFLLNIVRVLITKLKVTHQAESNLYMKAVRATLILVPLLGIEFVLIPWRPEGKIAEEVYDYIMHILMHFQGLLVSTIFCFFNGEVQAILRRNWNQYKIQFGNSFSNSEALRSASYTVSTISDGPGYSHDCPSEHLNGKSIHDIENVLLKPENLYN
# T1 sequence (O60894 27-148): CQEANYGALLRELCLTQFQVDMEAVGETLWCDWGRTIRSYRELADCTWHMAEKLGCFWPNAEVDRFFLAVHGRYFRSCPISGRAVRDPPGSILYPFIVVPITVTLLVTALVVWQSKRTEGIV
row,Compound,pKi
1,Cc1cc(Oc2cc(N3CCC(n4c(=O)[nH]c5ncccc54)CC3)ncn2)cc2oc(=O)n(C)c12 [(2)],7.70
2,Cc1ccc(Oc2cc(N3CCC(n4c(=O)[nH]c5ncccc54)CC3)ncn2)cc1C [(4)],6.76
3,Cc1cc(Oc2cc(N3CCC(n4c(=O)[nH]c5ncccc54)CC3)ncn2)cc2oc(=O)[nH]c12 [(5)],8.52
4,Cc1cc(Nc2cc(N3CCC(n4c(=O)[nH]c5ncccc54)CC3)ncn2)cc2oc(=O)[nH]c12 [(6)],8.40
5,Cc1nc2cc(Nc3cc(N4CCC(n5c(=O)[nH]c6c7ccccc7ncc65)CC4)ncn3)cc(C)c2[nH]1 [(9)],7.43
6,Cc1nc2cc(Nc3cc(N4CCC(n5c(=O)[nH]c6ncccc65)CC4)ncn3)cc(C)c2[nH]1 [(13)],7.17
7,Cc1cc(Nc2cc(N3CCC(n4c(=O)[nH]c5ncccc54)CC3)ncn2)cc2oc(=O)n(C)c12 [(14)],7.09
8,Cc1cc(Nc2cc(Nc3ccc4c(c3)CC3(C4)C(=O)Nc4ncccc43)ncn2)cc2oc(=O)[nH]c12 (centres unmarked) [(18)],6.64
9,Cc1nc2cc(Nc3cc(Nc4ccc5c(c4)CC4(C5)C(=O)Nc5ncccc54)ncn3)cc(C)c2[nH]1 (centres unmarked) [(19)],6.62
10,Cc1nc2cc(Nc3cc(N4CCC(n5c(=O)[nH]c6ncccc65)CC4)ncn3)cc(C)c2o1 [(20)],6.32
11,Cc1cc(Oc2cc(N3CCC4(CC3)OC(=O)Nc3ncccc34)ncn2)cc2oc(=O)[nH]c12 [(23)],9.00
12,Cc1nc(Nc2cc(C)c3[nH]c(=O)oc3c2)cc(N2CCC(n3c(=O)[nH]c4ncccc43)CC2)n1 [(24)],8.52
13,COCc1nc2cc(Oc3cc(N4CCC5(CC4)OC(=O)Nc4ncccc45)ncn3)cc(C)c2[nH]1 [(39)],8.15
14,COc1nc(Oc2cc(C)c3[nH]c(=O)oc3c2)cc(N2CCC3(CC2)OC(=O)Nc2ncccc23)n1 [(41)],8.52
15,Cc1cc(Oc2cc(N3CCC(n4c(=O)[nH]c5ncccc54)CC3)ncn2)cc2[nH]c(C3CC3)nc12 [(43)],8.22
16,Cc1cc(Oc2cc(N3CCC4(CC3)OC(=O)Nc3ncccc34)ncn2)cc2[nH]c(C3CC3)nc12 [(44)],9.00
17,Cc1nc2cc(Oc3cc(N4CCC5(CC4)OC(=O)Nc4ncccc45)ncn3)cc(Cl)c2[nH]1 [(51)],8.52

row,Compound,pKi
1,Cc1cc(Oc2cc(N3CCC(n4c(=O)[nH]c5ncccc54)CC3)ncn2)cc2[nH]c([C@@H]3CCCO3)nc12 [(52)],7.57
2,Cc1cc(Oc2cc(N3CCC4(CC3)OC(=O)Nc3ncccc34)ncn2)cc2[nH]c([C@@H]3CCCO3)nc12 [(54)],8.70
3,Cc1cc(Oc2cc(N3CCC4(CC3)OC(=O)Nc3ncccc34)ncn2)cc2nc(C3CCOC3)[nH]c12 (centres unmarked) [(58)],8.70
4,Cc1cc(Oc2cc(N3CCC4(CC3)OC(=O)Nc3ncccc34)ncn2)cc2nc([C@@H]3CCOC3)[nH]c12 [(59)],8.70
5,Cc1cc(Oc2cc(N3CCC4(CC3)OC(=O)Nc3ncccc34)ncn2)cc2nc([C@H]3CCOC3)[nH]c12 [(60)],8.70
6,O=C1Nc2ncccc2C2(CCN(c3cc(Oc4cc(Cl)c5[nH]c(C6CCOC6)nc5c4)ncn3)CC2)O1 (centres unmarked) [(61)],8.70
7,O=C1Nc2ncccc2C2(CCN(c3cc(Oc4cc(Cl)c5[nH]c(C6CCOCC6)nc5c4)ncn3)CC2)O1 [(62)],8.70
8,Cc1cc(Oc2cc(N3CCC4(CC3)OC(=O)Nc3ncccc34)ncn2)cc2nc(C(F)(F)F)[nH]c12 [(63)],8.70
9,Cc1cc(Oc2cc(N3CCC4(CC3)OC(=O)Nc3ncccc34)ncn2)cc2sc(=O)[nH]c12 [(64)],8.70
10,Cc1cc(Oc2cc(N3CCC4(CC3)OC(=O)Nc3ncccc34)ncn2)cc2nc(C3CCOCC3)[nH]c12 [(65)],8.52
11,COCCc1nc2c(C)cc(Oc3cc(N4CCC5(CC4)OC(=O)Nc4ncccc45)ncn3)cc2[nH]1 [(66)],8.22
12,COc1nc2cc(Oc3cc(N4CCC5(CC4)OC(=O)Nc4ncccc45)ncn3)cc(C)c2[nH]1 [(67)],8.22
13,Cc1cc(Oc2cc(N3CCC4(CC3)OC(=O)Nc3ncccc34)ncn2)cc2cn[nH]c12 [(68)],8.40
14,Cc1cc(Oc2cc(N3CCC4(CC3)OC(=O)Nc3ncccc34)ncn2)cc2c1NC(=O)CO2 [(69)],8.40
15,Cc1cc(Oc2cc(N3CCC4(CC3)OC(=O)Nc3ncccc34)ncn2)cc2[nH]c([C@H]3CCCO3)nc12 [(70)],8.30
16,Cc1nc(Oc2cc(C)c3[nH]c(=O)oc3c2)cc(N2CCC3(CC2)OC(=O)Nc2ncccc23)n1 [(71)],8.10

# The remaining lines, values ahead:
row,pKi,Compound
1,8.70,COc1ccc2c(c1)CCN(C1CCN(c3cc(Oc4cc(C)c5[nH]c(=O)oc5c4)ncn3)CC1)C(=O)N2 [(1)]
2,7.64,COc1ccc2c(c1)CCN(C1CCN(c3cc(Oc4cc(C)c5c(c4)oc(=O)n5C)ncn3)CC1)C(=O)N2 [(3)]
3,8.30,COc1ccc2c(c1)CCN(C1CCN(c3cc(Nc4cc(C)c5[nH]c(=O)oc5c4)ncn3)CC1)C(=O)N2 [(7)]
4,7.92,COc1ccc2c(c1)CCN(C1CCN(c3cc(Nc4cc(C)c5[nH]c(C)nc5c4)ncn3)CC1)C(=O)N2 [(8)]
5,7.31,COc1ccc2c(c1)CCN(C1CCN(c3cc(Nc4cc(C)c5c(c4)oc(=O)n5C)ncn3)CC1)C(=O)N2 [(10)]
6,7.27,COc1ccc2c(c1)CCN(C1CCN(c3cc(Nc4cc(C)c5[nH]ncc5c4)ncn3)CC1)C(=O)N2 [(11)]
7,7.21,COc1ccc2c(c1)CCN(C1CCN(c3cc(Nc4cc(C)c5c(c4)nc(C)n5C)ncn3)CC1)C(=O)N2 [(12)]
8,6.99,COc1ccc2c(c1)CCN(C1CCN(c3cc(N(C(C)=O)c4cc(C)c5c(c4)oc(=O)n5C)ncn3)CC1)C(=O)N2 [(15)]
9,6.73,COc1ccc2c(c1)CCN(C1CCN(c3cc(Nc4cc(C)c5oc(C)nc5c4)ncn3)CC1)C(=O)N2 [(16)]
10,6.70,COc1ccc2c(c1)CCN(C1CCN(c3cc(Nc4cc(C)c(O)c(C)c4)ncn3)CC1)C(=O)N2 [(17)]
11,8.70,COc1ccc2c(c1)CCN(C1CCN(c3cc(Sc4cc(C)c5[nH]c(=O)oc5c4)ncn3)CC1)C(=O)N2 [(21)]
12,8.30,COc1ccc2c(c1)CCN(C1CCN(c3cc(Oc4cc(C)c5[nH]c(=O)oc5c4)nc(C)n3)CC1)C(=O)N2 [(22)]
13,7.74,COc1ccc2c(c1)CCN(C1CCN(c3cc([S+]([O-])c4cc(C)c5[nH]c(=O)oc5c4)ncn3)CC1)C(=O)N2 (centres unmarked) [(25)]
14,7.35,COc1ccc2c(c1)CCN(C1CCN(c3cc(S(=O)(=O)c4cc(C)c5[nH]c(=O)oc5c4)ncn3)CC1)C(=O)N2 [(26)]
15,6.68,COc1ccc2c(c1)CCN(C1CCN(c3cc(Oc4cnc5ccccc5n4)ncn3)CC1)C(=O)N2 [(27)]
16,8.40,COc1ccc2c(c1)CCN(C1CCN(c3cc(Oc4cc(C)c5nc(CC#N)[nH]c5c4)ncn3)CC1)C(=O)N2 [(28)]
17,8.52,COc1ccc2c(c1)CCN(C1CCN(c3cc(Oc4cc(C)c5nc(C)[nH]c5c4)ncn3)CC1)C(=O)N2 [(29)]
18,6.89,COc1ccc2c(c1)CCN(C1CCN(c3cc(Oc4cc(C)nc5ccccc45)ncn3)CC1)C(=O)N2 [(31)]
19,7.82,COc1ccc2c(c1)CCN(C1CCN(c3cc(Oc4cc(C)c5nc[nH]c5c4)ncn3)CC1)C(=O)N2 [(32)]

row,pKi,Compound
1,8.10,COc1ccc2c(c1)CCN(C1CCN(c3cc(Oc4cc(C)c5nc(CC6CC6)[nH]c5c4)ncn3)CC1)C(=O)N2 [(33)]
2,7.74,Cc1nc2c(C)cc(Oc3cc(N4CCC(n5c(=O)[nH]c6ncccc65)CC4)ncn3)cc2[nH]1 [(34)]
3,7.80,COc1ccc2c(c1)CCN(C1CCN(c3cc(Oc4cc(C)c5nc(CC(F)(F)F)[nH]c5c4)ncn3)CC1)C(=O)N2 [(35)]
4,7.21,COc1ccc2c(c1)CCN(C1CCN(c3cc(Oc4cc(C)nc(C)c4)ncn3)CC1)C(=O)N2 [(36)]
5,7.19,COc1ccc2c(c1)CCN(C1CCN(c3cc(Oc4cc(C)c5[nH]c(=O)oc5c4)nc(N)n3)CC1)C(=O)N2 [(37)]
6,8.00,COCc1nc2c(C)cc(Oc3cc(N4CCC(N5CCc6cc(OC)ccc6NC5=O)CC4)ncn3)cc2[nH]1 [(38)]
7,8.10,COc1ccc2c(c1)CCN(C1CCN(c3cc(Oc4cc(C)c5[nH]c(=O)oc5c4)nc(OC)n3)CC1)C(=O)N2 [(40)]
8,8.70,COc1ccc2c(c1)CCN(C1CCN(c3cc(Oc4cc(C)c5nc(C6CC6)[nH]c5c4)ncn3)CC1)C(=O)N2 [(42)]
9,7.09,COc1ccc2c(c1)CCN(C1CCN(c3cc(Oc4cc(C)c5[nH]c(=O)oc5c4)nc(C4CC4)n3)CC1)C(=O)N2 [(45)]
10,6.71,COc1ccc2c(c1)CCN(C1CCN(c3nc(Cl)cc(Oc4cc(C)c5[nH]c(=O)oc5c4)n3)CC1)C(=O)N2 [(46)]
11,7.33,COc1ccc2c(c1)CCN(C1CCN(c3cc(Oc4ccc5[nH]c(=O)oc5c4)ncn3)CC1)C(=O)N2 [(47)]
12,7.02,COc1ccc2c(c1)CCN(C1CCN(c3cc(Oc4ccc(NC(C)=O)c(C)c4)ncn3)CC1)C(=O)N2 [(48)]
13,6.81,COc1ccc2c(c1)CCN(C1CCN(c3cc(Oc4ccc(N)c(C)c4)ncn3)CC1)C(=O)N2 [(49)]
14,8.30,COc1ccc2c(c1)CCN(C1CCN(c3cc(Oc4cc(C)c5nc([C@@H]6CCCO6)[nH]c5c4)ncn3)CC1)C(=O)N2 [(53)]
15,7.05,COc1ccc2c(c1)CCN(C1CCN(c3cc(Oc4ccc5[nH]c(C)nc5c4)ncn3)CC1)C(=O)N2 [(55)]
16,7.54,COc1ccc2c(c1)CCN(C1CCN(c3cc(Oc4ccc5[nH]c(C)nc5c4Cl)ncn3)CC1)C(=O)N2 [(56)]
17,7.46,COc1ccc2c(c1)CCN(C1CCN(c3cc(Oc4cc(C)c5c(c4)OCC(=O)N5)ncn3)CC1)C(=O)N2 [(57)]
18,8.52,COc1ccc2c(c1)CCN(C1CCN(c3cc(Oc4cc(C)c5[nH]c(=O)sc5c4)ncn3)CC1)C(=O)N2 [(72)]
19,8.52,COc1ccc2c(c1)CCN(C1CCN(c3cc(Oc4cc(C)c5nc(C6CCOC6)[nH]c5c4)ncn3)CC1)C(=O)N2 (centres unmarked) [(73)]
